Source: US20090042883A1, “ANTITUMOR AGENT” (KYOWA HAKKOKOGYO CO., priority 2005, published 2009)

Columns and labels:
Assay type in all cases: cell-based
[1] = test system: human acute myelocytic leukemia MV4; 11 cells; test: Growth inhibition test on human acute myelocytic leukemia MV4; 11 cells (WST-1, % viability); settings: test compound 10 μmol/L, cells without test compound = 100%
Experimental: (§1) Ten thousand cells of human acute myelocytic leukemia MV4; 11 were inoculated into each well of a 96-well microplate (manufactured by Nunc Corp.), and using IMDM medium (culture medium) containing 10% FCS, preculturing was performed in a 5% carbon dioxide incubator at 37° C. for 24 hours. A DMSO solution of each test compound prepared in a concentration of 10 mmol/L was diluted with the culture medium to a final concentration of 10 μmol/L, and the diluted solution was added to each well. The individual wells were further cultured in the 5% carbon dioxide incubator at 37° C. for 72 hours. After completion of the culturing, 10 μL of WST-1 labeled mixture (manufactured by Roche Diagnostic Corp.) was added to each well, and culturing was performed in the 5% carbon dioxide incubator at 37° C. for 1 hour. Using a microplate spectrophotometer (SpectraMax 340PC384; manufactured by Nihon Molecular Devices), the absorbance of each well was measured at 450 nm and 655 nm. The value obtained by subtracting the absorbance at 450 nm from the absorbance at 655 nm (absorbance difference) was calculated for each well. The value for cells not incorporated with a test compound was designated as 100%, and the value at a well not containing cells was designated as 0%. By comparing these values with the absorbance difference obtained at the well in which each test compound was added, the cell viability (% viability) after treatment with the test compound was calculated.

[2] = test system: human multiple myeloma NCI-H929 cells; test: Growth inhibition test on human multiple myeloma NCI-H929 cells (WST-1, % viability); settings: test compound 10 μmol/L, cells without test compound = 100%
Experimental: as §1, with “multiple myeloma NCI-H929” for “acute myelocytic leukemia MV4; 11”, “RPMI” for “IMDM”, “2 hours.” for “1 hour.”

[3] = test system: human T-cell lymphoma Karpas-299 cells; test: Growth inhibition test on human T-cell lymphoma Karpas-299 cells (WST-1, % viability); settings: test compound 10 μmol/L, 72 hours, cells without test compound = 100%
Experimental: as §1, with “Five” for “Ten”, “T-cell lymphoma Karpas-299” for “acute myelocytic leukemia MV4; 11”, “RPMI” for “IMDM”, “5” for “24”, “2 hours.” for “1 hour.”

[4] = test system: human mammary cancer BT-474 cells; test: Growth inhibition test on human mammary cancer BT-474 cells (WST-1, % viability); settings: test compound 10 μmol/L, cells without test compound = 100%
Experimental: as §1, with “Four” for “Ten”, “mammary cancer BT-474” for “acute myelocytic leukemia MV4; 11”, “Dulbecco's Modified Eagle's Medium (DMEM)” for “IMDM medium”, “2 hours.” for “1 hour.”

[5] = test system: human prostate cancer 22Rv1 cells; test: Growth inhibition test on human prostate cancer 22Rv1 cells (WST-1, % viability); settings: test compound 10 μmol/L, 72 hours, cells without test compound = 100%
Experimental: as §1, with “Five” for “Ten”, “prostate cancer 22Rv1” for “acute myelocytic leukemia MV4; 11”, “RPMI1640” for “IMDM”, “2 hours.” for “1 hour.”, “(Model 550;” for “(SpectraMax 340PC384;”, “Bio-Rad),” for “Nihon Molecular Devices),”

| SMILES | Viability of tumor cells (% viability), Human acute myelocytic leukemia MV4; 11 cells [1] | Viability of tumor cells (% viability), Human multiple myeloma NCI-H929 cells [2] | Viability of tumor cells (% viability), Human T-cell lymphoma Karpas-299 cells [3] | Viability of tumor cells (% viability), Human mammary cancer BT-474 cells [4] | Viability of tumor cells (% viability), Human prostate cancer 22Rv1 cells [5] |
| --- | --- | --- | --- | --- | --- |
| CCc1c(O)cc(O)c(C(=O)c2ccc(OC)c(OC)c2)c1CC(=O)N(CCO)CCOC [Compound 56] | 0% | 0% | 14% | 13% | 5% |
| CCc1c(O)cc(O)c(C(=O)c2ccc(S(C)(=O)=O)cc2)c1CC(=O)N(CCOC)CCOC [Compound 107] | 0% | 0% | 14% | 13% | 5% |
| CCc1c(O)cc(O)c(C(=O)c2ccc(OC)cc2)c1CC(=O)N(CCO)CCO [Compound 13] | 0% | 0% | 27% | 12% | 6% |
| CCc1c(O)cc(O)c(C(=O)c2ccc(C(F)(F)F)cc2)c1CC(=O)N(CCO)CCOC [Compound 144] | 0% | 0% | 15% | 13% | 5% |
| CCc1c(O)cc(O)c(C(=O)c2ccsc2)c1CC(=O)N(CCO)CCOC [Compound 151] | 0% | 0% | 13% | 13% | 5% |
| CCc1c(O)cc(O)c(C(=O)c2ccc(SC)cc2)c1CC(=O)N(CCO)CCOC [Compound 95] | 0% | 0% | 15% | 13% | 5% |
| CCc1c(O)cc(O)c(C(=O)c2ccc(OC)cc2)c1CC(=O)N1CCN(c2ncccn2)CC1 [Compound 32] | 0% | 0% | 15% | 13% | 5% |
| CCc1c(O)cc(O)c(C(=O)c2ccc(O)c(OC)c2)c1CC(=O)N(CCOC)CCOC [Compound 106] | 0% | 0% | 13% | 12% | 5% |
| CCc1c(O)cc(O)c(C(=O)c2ccc(OC(F)F)cc2)c1CC(=O)N(CCO)CCOC [Compound 91] | 0% | 0% | 16% | 13% | 5% |
| CCc1c(O)cc(O)c(C(=O)c2ccc(OCCN3CCOCC3)c(OC)c2)c1CC(=O)N(CCOC)CCOC [Compound 125] | 0% | 0% | 15% | 14% | 5% |
